# Reference: PMC9823088, “The oral selective estrogen receptor degrader GDC-0810 (ARN-810) in postmenopausal women with hormone receptor-positive HER2-negative (HR + /HER2 −) advanced/metastatic breast cancer” (Breast Cancer Research and Treatment, 2022)
# Assay: Safety: adverse events (NCI-CTCAE v4.0), DLT, MTD, RP2D
# Type: in vivo
# Description: AEs were assessed using the National Cancer Institute-Common Terminology Criteria for Adverse Events (NCI-CTCAE v4.0). […] The protocol-defined GDC-0810-specific AEs of special interest (AESI) which were non-serious adverse events that required expedited reporting to the sponsor, included DLTs occurring during the DLT assessment window, grade ≥ 2 vomiting/diarrhea, grade ≥ 3 nausea, grade ≥ 2 thromboembolic events, grade ≥ 2 vaginal or uterine hemorrhage, and grade ≥ 3 elevation of ALT or AST.
# Analyses of safety, pharmacokinetics, anti-tumor activity, and data from the FES-PET imaging correlative studies were planned. Confirmatory inferential analyses and imputation for missing data were not planned due to the exploratory nature of this study. Descriptive statistics were used to summarize patient data. The number of patients to be enrolled was dependent upon the observed safety and pharmacokinetic profile during dose escalations. The safety- and efficacy-evaluable population included patients who received at least one dose of the study drug. Safety was assessed through summaries of DLTs, AEs, changes in select laboratory test results, vital signs, ECGs, and changes in endometrial thickness. Objective response (with confirmation) and clinical benefit rates (CBR) were derived per RECIST v1.1 and summarized by dose level and cohort. […]
# polyps, endometrial cancer, endometrial hyperplasia, and other significant disorders); any […]
# disease or chronic diarrhea, short bowel syndrome, or upper gastrointestinal surgery; known human immunodeficiency virus (HIV) infection; known clinically significant history of liver disease; major surgery within 4 weeks prior to enrollment; or radiation therapy within 2 weeks […]
# There were phase-specific exclusion criteria as well. In phase Ib, cohort C1 excluded patients with a history of venous thromboembolic event requiring therapeutic anticoagulation or vaginal bleeding within 2 months prior to enrollment. In phase IIa, cohorts A1 and A2 excluded patients with >1 chemotherapy in the advanced/metastatic disease setting. In phase IIa, cohort B1 excluded patients with >1 prior AI in the advanced/metastatic disease setting or prior […]
# In phase IIa, cohort B2 excluded patients with >1 prior AI or >1 prior chemotherapy in the advanced/metastatic disease setting.
# Patients in phase Ia in dose escalation received oral doses of GDC-0810 during 28-day cycles given once daily (QD) or twice-daily (BID), with fasting and without fasting, and with a single dose given on day −7 leading into cycle 1. The starting dose in the first cohort was 100 mg per day based on preclinical studies. Dose escalation to 200 mg and by 200 mg increments in successive cohorts occurred in the absence of dose-limiting toxicities (DLTs), or conditionally in the presence of DLTs. A DLT was defined as any adverse event (AE) occurring during the DLT window deemed by the investigator or sponsor to be related to the study drug unless they were clearly related to disease progression or other cause; DLT incidences were evaluated from day […]
# patients in a dose cohort experienced a DLT, 3 additional patients were assigned to that dose; dose escalation to the next level proceeded if DLTs were experienced by ≤1 patient out of 6. If ≥2 patients experienced DLTs at a given dose, a lower dose was to be declared the maximum […]
# Phase Ib was a dose-escalation study of GDC-0810 starting at 400 mg QD, as […]
# Phase IIa explored the recommended phase 2 dose (RP2D) from phase Ia. All patients received GDC-0810 600 mg under non-fasting conditions. Cohorts A1 and A2 enrolled patients with tumors harboring ESR1 mutations with no prior fulvestrant use in cohort A1 while prior fulvestrant use was allowed in cohort A2. Cohorts B1 and B2 enrolled patients whose disease had progressed and who may have had one or no AI therapy; there was no prior fulvestrant use in cohort B1 while prior fulvestrant use was allowed in cohort B2.
# Patients in all three study phases continued treatment until unacceptable toxicity, disease
# [1] = phase 1a (n=41), grade 3, cohort 200 mg
# [2] = phase 1a (n=41), grade 3, cohort 300 mg, BID
# [3] = phase 1a (n=41), grade 3, cohort 600 mg
# [4] = phase 1a (n=41), grade 3, cohort 800 mg, non-fasting
# [5] = phase 1a (n=41), grade 4, cohort 600 mg, non-fasting
# [6] = phase 1a (n=41), grade 5, cohort 600 mg, non-fasting
# [7] = phase IIa A1, 600 mg QD, n = 19
# [8] = phase IIa A2, 600 mg QD, n = 10
# [9] = phase IIa B1, 600 mg QD, n = 53
# [10] = phase IIa B2, 600 mg QD, n = 19
compound,measurement,setting,value
CC/C(=C(/c1ccc(/C=C/C(=O)O)cc1)c1ccc2[nH]ncc2c1)c1ccc(F)cc1Cl [GDC-0810],tolerability based on frequency of gastrointestinal AEs,800 mg daily,intolerable
same,patients who reported SAEs regardless of attribution,across all 3 phases,33 patients
same,"AST increased, Grades 3–5","all 3 study phases, N = 152",4 (3) n (%)
same,"AST increased, all grades","all 3 study phases, N = 152",26 (17) n (%)
same,"Abdominal pain, Grades 3–5","all 3 study phases, N = 152",3 (2) n (%)
same,"Abdominal pain, all grades","all 3 study phases, N = 152",28 (18) n (%)
same,"Anemia, Grades 3–5","all 3 study phases, N = 152",4 (3) n (%)
same,"Anemia, all grades","all 3 study phases, N = 152",34 (22) n (%)
same,"Arthralgia, Grades 3–5","all 3 study phases, N = 152",0 n (%)
same,"Arthralgia, all grades","all 3 study phases, N = 152",32 (21) n (%)
same,"Constipation, Grades 3–5","all 3 study phases, N = 152",1 (1) n (%)
same,"Constipation, all grades","all 3 study phases, N = 152",42 (28) n (%)
same,"Cough, Grades 3–5","all 3 study phases, N = 152",1 (1) n (%)
same,"Cough, all grades","all 3 study phases, N = 152",30 (20) n (%)
same,"Decreased appetite, Grades 3–5","all 3 study phases, N = 152",0 n (%)
same,"Decreased appetite, all grades","all 3 study phases, N = 152",38 (25) n (%)
same,"Diarrhea, Grades 3–5","all 3 study phases, N = 152",7 (5) n (%)
same,"Diarrhea, all grades","all 3 study phases, N = 152",95 (63) n (%)
same,"Dyspepsia, Grades 3–5","all 3 study phases, N = 152",1 (1) n (%)
same,"Dyspepsia, all grades","all 3 study phases, N = 152",30 (20) n (%)
same,"Fatigue, Grades 3–5","all 3 study phases, N = 152",6 (4) n (%)
same,"Fatigue, all grades","all 3 study phases, N = 152",77 (51) n (%)
same,"Flatulence, Grades 3–5","all 3 study phases, N = 152",0 n (%)
same,"Flatulence, all grades","all 3 study phases, N = 152",29 (19) n (%)
same,"Nausea, Grades 3–5","all 3 study phases, N = 152",1 (1) n (%)
same,"Nausea, all grades","all 3 study phases, N = 152",82 (54) n (%)
same,"Vomiting, Grades 3–5","all 3 study phases, N = 152",4 (3) n (%)
same,"Vomiting, all grades","all 3 study phases, N = 152",47 (31) n (%)
same,patients experiencing ≥ 1 AE regardless of causality,all who received the study drug,All patients
same,dose-limiting toxicity (DLT),"dose escalation, 35-day DLT window, diarrhea, 800-mg QD",one and a DLT
same,ER agonist effects on the lipid profiles of patients,in vivo,no clinically significant ER agonist effects
same,patients who reported SAEs regardless of attribution,phase 1a,13 n
same,SAE Pneumothorax,"phase 1a (n=41), grade 1, cohort 800 mg, non-fasting",1 (2%) n (%)
same,SAE Presyncope,"phase 1a (n=41), grade 2, cohort 300 mg, BID",1 (2%) n (%)
same,SAE Urinary tract infection,"phase 1a (n=41), grade 3, cohort 100 mg",1 (2%) n (%)
same,SAE Abdominal pain,[1],1 (2%) n (%)
same,SAE Nausea,[1],1 (2%) n (%)
same,SAE Vomiting,[1],1 (2%) n (%)
same,SAE Skin infection,[2],1 (2%) n (%)
same,SAE Venous thrombosis,[2],1 (2%) n (%)
same,SAE Anemia,[3],1 (2%) n (%)
same,SAE Ascites,[3],1 (2%) n (%)
same,SAE Adrenal insufficiency,[4],1 (2%) n (%)
same,SAE Fatigue,[4],1 (2%) n (%)
same,SAE Pulmonary embolism,"phase 1a (n=41), grade 4, cohort 300 mg, BID, related to study drug",1 (2%) n (%)
same,SAE Thrombocytopenia,"phase 1a (n=41), grade 4, cohort 600 mg",1 (2%) n (%)
same,SAE Cardiac arrest,[5],1 (2%) n (%)
same,SAE Hyponatremia,[5],1 (2%) n (%)
same,SAE Cardiac failure,[6],1 (2%) n (%)
same,SAE Metastases to peritoneum,[6],1 (2%) n (%)
same,SAE Blood bilirubin increased,"phase 1a (n=41), grade 5, cohort 800 mg",1 (2%) n (%)
same,patients who reported SAEs regardless of attribution,phase 1b,3 n
same,patients who reported SAEs regardless of attribution,phase 2a,17 n
same,deaths,phase IIa,3 deaths
same,"AST increased, Grades 3–5",[7],0 n (%)
same,"AST increased, all grades",[7],1 (5) n (%)
same,"Abdominal pain, Grades 3–5",[7],1 (5) n (%)
same,"Abdominal pain, all grades",[7],3 (16) n (%)
same,"Anemia, Grades 3–5",[7],0 n (%)
same,"Anemia, all grades",[7],2 (11) n (%)
same,"Arthralgia, Grades 3–5",[7],0 n (%)
same,"Arthralgia, all grades",[7],4 (21) n (%)
same,"Constipation, Grades 3–5",[7],0 n (%)
same,"Constipation, all grades",[7],2 (11) n (%)
same,"Cough, Grades 3–5",[7],0 n (%)
same,"Cough, all grades",[7],2 (11) n (%)
same,"Decreased appetite, Grades 3–5",[7],0 n (%)
same,"Decreased appetite, all grades",[7],6 (32) n (%)
same,"Diarrhea, Grades 3–5",[7],0 n (%)
same,"Diarrhea, all grades",[7],10 (53) n (%)
same,"Dyspepsia, Grades 3–5",[7],0 n (%)
same,"Dyspepsia, all grades",[7],6 (31) n (%)
same,"Fatigue, Grades 3–5",[7],0 n (%)
same,"Fatigue, all grades",[7],8 (42) n (%)
same,"Flatulence, Grades 3–5",[7],0 n (%)
same,"Flatulence, all grades",[7],4 (21) n (%)
same,"Nausea, Grades 3–5",[7],0 n (%)
same,"Nausea, all grades",[7],8 (42) n (%)
same,"Vomiting, Grades 3–5",[7],2 (11) n (%)
same,"Vomiting, all grades",[7],8 (42) n (%)
same,"AST increased, Grades 3–5",[8],0 n (%)
same,"AST increased, all grades",[8],2 (20) n (%)
same,"Abdominal pain, Grades 3–5",[8],0 n (%)
same,"Abdominal pain, all grades",[8],0 n (%)
same,"Anemia, Grades 3–5",[8],1 (10) n (%)
same,"Anemia, all grades",[8],2 (20) n (%)
same,"Arthralgia, Grades 3–5",[8],0 n (%)
same,"Arthralgia, all grades",[8],0 n (%)
same,"Constipation, Grades 3–5",[8],0 n (%)
same,"Constipation, all grades",[8],0 n (%)
same,"Cough, Grades 3–5",[8],0 n (%)
same,"Cough, all grades",[8],1 (10) n (%)
same,"Decreased appetite, Grades 3–5",[8],0 n (%)
same,"Decreased appetite, all grades",[8],3 (30) n (%)
same,"Diarrhea, Grades 3–5",[8],1 (10) n (%)
same,"Diarrhea, all grades",[8],5 (50) n (%)
same,"Dyspepsia, Grades 3–5",[8],1 (10) n (%)
same,"Dyspepsia, all grades",[8],2 (20) n (%)
same,"Fatigue, Grades 3–5",[8],0 n (%)
same,"Fatigue, all grades",[8],2 (20) n (%)
same,"Flatulence, Grades 3–5",[8],0 n (%)
same,"Flatulence, all grades",[8],0 n (%)
same,"Nausea, Grades 3–5",[8],0 n (%)
same,"Nausea, all grades",[8],6 (60) n (%)
same,"Vomiting, Grades 3–5",[8],0 n (%)
same,"Vomiting, all grades",[8],4 (40) n (%)
same,"AST increased, Grades 3–5",[9],2 (4) n (%)
same,"AST increased, all grades",[9],4 (8) n (%)
same,"Abdominal pain, Grades 3–5",[9],1 (2) n (%)
same,"Abdominal pain, all grades",[9],10 (19) n (%)
same,"Anemia, Grades 3–5",[9],1 (2) n (%)
same,"Anemia, all grades",[9],6 (11) n (%)
same,"Arthralgia, Grades 3–5",[9],0 n (%)
same,"Arthralgia, all grades",[9],14 (26) n (%)
same,"Constipation, Grades 3–5",[9],1 (2) n (%)
same,"Constipation, all grades",[9],16 (30) n (%)
same,"Cough, Grades 3–5",[9],1 (2) n (%)
same,"Cough, all grades",[9],8 (15) n (%)
same,"Decreased appetite, Grades 3–5",[9],0 n (%)
same,"Decreased appetite, all grades",[9],9 (17) n (%)
same,"Diarrhea, Grades 3–5",[9],5 (9) n (%)
same,"Diarrhea, all grades",[9],29 (55) n (%)
same,"Dyspepsia, Grades 3–5",[9],0 n (%)
same,"Dyspepsia, all grades",[9],6 (11) n (%)
same,"Fatigue, Grades 3–5",[9],2 (4) n (%)
same,"Fatigue, all grades",[9],27 (51) n (%)
same,"Flatulence, Grades 3–5",[9],0 n (%)
same,"Flatulence, all grades",[9],13 (25) n (%)
same,"Nausea, Grades 3–5",[9],0 n (%)
same,"Nausea, all grades",[9],24 (45) n (%)
same,"Vomiting, Grades 3–5",[9],1 (2) n (%)
same,"Vomiting, all grades",[9],14 (26) n (%)
same,"AST increased, Grades 3–5",[10],0 n (%)
same,"AST increased, all grades",[10],1 (5) n (%)
same,"Abdominal pain, Grades 3–5",[10],0 n (%)
same,"Abdominal pain, all grades",[10],1 (5) n (%)
same,"Anemia, Grades 3–5",[10],1 (5) n (%)
same,"Anemia, all grades",[10],4 (21) n (%)
same,"Arthralgia, Grades 3–5",[10],0 n (%)
same,"Arthralgia, all grades",[10],0 n (%)
